The subject of one assay is MOLM-14 cells. Briefly: WST-1 cell proliferation assay, MOLM-14. It is filed as cell-based, human. Conditions: cell proliferation. The procedure:
(§1) Cell lines were seeded into 96-well plates the afternoon prior to treatment. Approximately 18 hours later, bis and mono-aziridine dimeric naphthoquinone compounds were semi-serially diluted in dimethyl sulfoxide (DMSO) and then growth medium, and added to cells. Plates were incubated for 72 hours prior to addition of WST-1 (Promega®). Plates were read after 4 additional hours of incubation at 37° C. using a Bio-Tek Synergy® HT plate reader (Bio-Tek®). Data were analyzed and graphed using GraphPad Prism® Software (Graph Pad®).
(§2) Primary AML cells from patients and cell lines were seeded into 96-well plates the afternoon prior to treatment. Eighteen hours later, amino-dimeric naphthoquinone Compounds 106, 101, and 114 were semi-serially diluted in dimethyl sulfoxide (DMSO) and then growth medium, and added to the cells. In order to quantitate proliferation of metabolically active cells, plates were incubated for 72 hours for cell lines and 48 hours for primary AML cells prior to addition of water-soluble tetrazolium (WST-1) (Clontech®). Plates were read after four additional hours of incubation at 37° C. using a Bio-Tek Synergy® HT plate reader (Bio-Tele®). Data were analyzed and graphed using GraphPad Prism® Software (GraphPad®). IC50 was defined as the concentration that decreases viable cell numbers by 50%. IC50 values were calculated as mean±standard deviation from at least two independent experiments. If availability of primary blasts was limited, the IC50 was obtained from a single experiment.
To investigate antiproliferative activity of amino-dimeric naphthoquinones against AML cells, an MTT-like cell proliferation assay was performed in the AML cell lines using WST-1 (water soluble tetrazolium salts; Promega®). MOLM-14 and AML-D cells, as well as normal hematopoietic bone marrow cells from a healthy donor, were exposed to a range of concentrations of Compound 101. Human leukemia cells were cultured in the presence of the compound for 72 hours (48 hours for primary cells) and WST-1 reagent was then added. The cells then were monitored for cell growth or the number of cells proliferating and the IC50 calculated. The IC50 is the concentration at which 50% of the cells are not proliferating compared to control cells treated with vehicle. See FIG. 2A, FIG. 2B, and FIG. 2C for representative graphs of these IC50 determinations.
For orientation: Tetrazolium assays rely on reduction of a dye to a coloured formazan, in cell work by metabolically active cells.

In another assay the test system is MV4-11 cells. Briefly: WST-1 cell proliferation assay, MV4-11. It is filed as cell-based, human. The procedure:
as §1, §2

Setting [1] is: Homo sapiens, MOLM-14, Table 9, read-out: IC50 (μM) MOLM-14.
The mark [2] stands for this setting: Homo sapiens, MV4-11, Table 9, cell proliferation, read-out: IC50 (μM) MV411.
The mark [3] stands for this setting: Homo sapiens, MOLM-14, Table 3, read-out: MOLM14 IC50.
Setting [4] is: Homo sapiens, MV4-11, Table 3, cell proliferation, read-out: MV411 IC50.
The mark [5] stands for this setting: Table 2, cell proliferation, read-out: MV411 IC50.
[6] abbreviates: Homo sapiens, MOLM-14, Table 7, read-out: IC50 (μM) MOLM-14.
Setting [7] is: Homo sapiens, MV4-11, Table 7, cell proliferation, read-out: IC50 (μM) MV411.
[8] abbreviates: Homo sapiens, MOLM-14, Table 1, read-out: MOLM14 IC50.
The mark [9] stands for this setting: Homo sapiens, MV4-11, Table 1, cell proliferation, read-out: MV411 IC50.
Setting [10] is: Homo sapiens, MOLM-14, Table 2, read-out: MOLM14 IC50.
Where [11] appears, read: Homo sapiens, MV4-11, Table 2, cell proliferation, read-out: MV411 IC50.

Read-outs that look alike come from different tables or passages of the source.

As usually defined, the IC50 is the concentration at which inhibition is half-maximal. Take `CN(CCO)C1=C(C2=C(N(C)CCO)C(=O)c3ccccc3C2=O)C(=O)c2ccccc2C1=O` [Compound 118]: the half-inhibitory concentration (IC50) in the assay with MOLM-14 cells (setting [1]) is 5.8 ± 0.6 µM; in the assay on MV4-11 cells (setting [2]), 5.25 ± 0.3 µM.
Regarding `O=C1C(C2=C(N3CCN(CCOCCO)CC3)C(=O)c3ccccc3C2=O)=C(N2CCN(CCOCCO)CC2)C(=O)c2ccccc21` [Compound 110, 3,3′-bis(4-(2-(2-hydroxyethoxy)ethyl)piperazin-1-yl)-[2,2′-binaphthalene]-1,1′,4,4′-tetrone], the IC50 was found to be 1.9 ± 0.32 µM in the assay with MOLM-14 cells (setting [3]) and 140 ± 0.91 µM in the assay with MV4-11 cells (setting [4]).
Regarding `O=C1C(C2=C(N3CCN(CCO)CC3)C(=O)c3ccccc3C2=O)=C(N2CCN(CCO)CC2)C(=O)c2ccccc21` [Compound 116], the IC50 in the assay on MOLM-14 cells (setting [1]) stood at 1.17 µM; in the assay on MV4-11 cells (setting [2]), 1.65 µM.
Take `O=C1C(C2=C(N3CCN(CCO)CC3)C(=O)c3ccccc3C2=O)=C(N2CCN(CCO)CC2)C(=O)c2ccccc21` [Compound 121, 3,3′-bis[4-(2-hydroxyethyl)piperazin-1-yl]-4a,5a-dihydro-[2,2′-binaphthalene]-1,1′,4,4′-tetrone]: the IC50 was 1.17 µM with MOLM-14 cells (Table 2, read-out: MOLM14 IC50) and 1.65 µM in the assay on MV4-11 cells (setting [5]).
Take `CN(CCO)C1=C(C2=C(N(C)CCO)C(=O)c3ccccc3C2=O)C(=O)c2ccccc2C1=O` [Compound 107, 3,3′-bis-[(2-hydroxyethyl)(N-methyl)amino]-2,2′-binaphthalenyl-1,1′,4,4′-tetrone]: the IC50 in the assay with MOLM-14 cells (setting [3]) was determined as 5.85 ± 0.64 µM; in the assay with MOLM-14 cells (setting [6]), 6.3 µM; with MV4-11 cells (setting [4]), 5.25 ± 0.35 µM; in the assay with MV4-11 cells (setting [7]), 5 µM.
For the compound `O=C1C(Cl)=C(C2=C(Cl)C(=O)c3cc(Br)ccc3C2=O)C(=O)c2ccccc21` [Compound 139], the IC50 in the assay with MOLM-14 cells (setting [6]) stood at 7.1 µM; in the assay on MV4-11 cells (setting [7]), 5 µM.
Take `CN(C)C1=C(C2=C(Cl)C(=O)c3ccccc3C2=O)C(=O)c2ccccc2C1=O` [Compound 123, 3-chloro-3′-(dimethylamino)-2,2′-binaphthalenyl-1,1′,4,4′-tetrone]: the IC50 in the assay with MOLM-14 cells (setting [8]) came out at 3 ± 1.42 µM; in the assay on MOLM-14 cells (setting [6]), 3 µM; in the assay on MV4-11 cells (setting [9]) it was 2.4 ± 2 µM; with MV4-11 cells (setting [7]), 2.4 µM.
`O=C1C(NCCO)=C(C2=C(NCCO)C(=O)c3cc(F)ccc3C2=O)C(=O)c2ccccc21` [Compound 105, 3,3′-bis(2-hydroxyethylamino)-6-fluoro-2,2′-binaphthyl-1,1′,4,4′-tetrone]: the results for the IC50 in the assay with MOLM-14 cells (setting [3]) and in the assay with MV4-11 cells (setting [4]) were 1.3 ± 0.23 µM and 2.05 ± 0.4 µM, respectively.
For the compound `CN(C)C1=C(C2=C(N(C)C)C(=O)c3ccccc3C2=O)C(=O)c2ccccc2C1=O` [Compound 135], the results for the IC50 in the assay with MOLM-14 cells (setting [1]) and in the assay on MV4-11 cells (setting [2]) were 2.8 ± 0.9 µM and 2.2 ± 0.6 µM, respectively.
Regarding `O=C1C(C2=C(N3CCC(O)CC3)C(=O)c3ccccc3C2=O)=C(N2CCC(O)CC2)C(=O)c2ccccc21` [Compound 122, 3,3′-bis-(4-hydroxypiperidinyl)-2,2′-binaphthalenyl-1,1′,4,4′-tetrone], the half-maximal inhibitory concentration (IC50) is 4.3 ± 2.12 µM with MOLM-14 cells (Table 2, read-out: MOLM14 IC50) and 2.5 µM with MV4-11 cells (setting [5]).
Consider `COc1ccc2c(c1)C(=O)C(NCCO)=C(C1=C(NCCO)C(=O)c3ccccc3C1=O)C2=O` [Compound 104, 3,3′-bis(2-hydroxyethylamino)-6-methoxy-2,2′-binaphthalenyl-1,1′,4,4′-tetrone], for which the IC50 is 0.37 ± 0.17 µM with MOLM-14 cells (setting [3]), 1.32 ± 0.23 µM with MOLM-14 cells (setting [1]), 1.16 ± 0.2 µM in the assay with MV4-11 cells (setting [4]) and 2.05 ± 0.4 µM with MV4-11 cells (setting [2]).
For `CC(=O)OCCNC1=C(C2=C(NCCOC(C)=O)C(=O)c3ccccc3C2=O)C(=O)c2ccccc2C1=O` [Compound 119], the IC50 in the assay on MOLM-14 cells (setting [1]) was 1 µM; with MV4-11 cells (setting [2]), 2.2 ± 0.7 µM.
As to `O=C1C(Cl)=C(C2=C(N3CCN(CCO)CC3)C(=O)c3ccccc3C2=O)C(=O)c2ccccc21` [Compound 126, 3-chloro-3′-[(4-hydroxyethyl)piperazinyl]-2,2′-binaphthalenyl-1,1′,4,4′-tetrone], the IC50 with MOLM-14 cells (setting [8]) is 0.85 ± 0.25 µM; with MOLM-14 cells (setting [6]), 0.6 µM; with MV4-11 cells (setting [9]) it was 0.76 ± 0.36 µM; in the assay on MV4-11 cells (setting [7]), 0.5 µM.
As for `O=C1C(NCCO)=C(C2=C(NCCO)C(=O)c3ccccc3C2=O)C(=O)c2ccccc21` [Compound 115], the IC50 was found to be 0.15 ± 0.01 µM with MOLM-14 cells (setting [1]) and 0.2 ± 0.02 µM in the assay with MV4-11 cells (setting [2]).
`CN(C)C1=C(C2=C(N(C)C)C(=O)c3ccccc3C2=O)C(=O)c2ccccc2C1=O` [Compound 120, 3,3′-bis-(2-dimethylamino)-2,2′-biuaphthalenyl-1,1′,4,4′-tetrone]: the IC50 was found to be 2.8 ± 0.91 µM in the assay on MOLM-14 cells (setting [10]), 2.9 µM in the assay on MOLM-14 cells (setting [6]), 2.15 ± 0.64 µM in the assay with MV4-11 cells (setting [11]) and 2.4 µM with MV4-11 cells (setting [7]).
For `CN(C)C1=C(C2=C(N(C)C)C(=O)c3ccccc3C2=O)C(=O)c2ccccc2C1=O` [Compound 114, 3,3′-bis(dimethylamino)-[2,2′-binaphthalene]-1,1′,4,4′-tetrone], the concentration for half-maximal inhibition (IC50) in the assay on MV4-11 cells (Homo sapiens, MV4-11, Example 5 text, unit inferred, read-out: IC50 against MV4-11) is 2.4 ± 0.3 µM.
`CN(C)CCN(C)C1=C(C2=C(Cl)C(=O)c3ccccc3C2=O)C(=O)c2ccccc2C1=O` [Compound 124, 3-chloro-3′((2-(dimethylamino)ethyl)(methyl)amino)-[2,2′-binaphthalene]-1,1′,4,4′-tetrone]: the IC50 is 2.8 ± 0.01 µM in the assay on MOLM-14 cells (setting [8]), 2.8 µM in the assay on MOLM-14 cells (setting [6]), 1.3 ± 1 µM in the assay with MV4-11 cells (setting [9]) and 1.3 µM with MV4-11 cells (setting [7]).
As to `O=C1C(C2=C(N3CCC(O)CC3)C(=O)c3ccccc3C2=O)=C(N2CCC(O)CC2)C(=O)c2ccccc21` [Compound 117], the IC50 in the assay on MOLM-14 cells (setting [1]) was determined as 4.3 ± 2.1 µM; in the assay on MV4-11 cells (setting [2]), 2.5 µM.
Turning to `CN(C)CCNC1=C(C2=C(NCCN(C)C)C(=O)c3ccccc3C2=O)C(=O)c2ccccc2C1=O` [Compound 103, 3,3′-bis({[2-(dimethylamino)ethyl]amino})-[2,2′-binaphthalene]-1,1′,4,4′-tetrone], the half-inhibitory concentration (IC50) was 0.12 µM in the assay on MOLM-14 cells (setting [10]) and 0.49 µM with MV4-11 cells (setting [11]).
In the case of `CC(=O)OCCNC1=C(C2=C(NCCOC(C)=O)C(=O)c3ccccc3C2=O)C(=O)c2ccccc2C1=O` [Compound 109, 3,3′bis-[(2-acyloxyethyl)amino]-2,2′-binaphthalenyl-1, -1′,4,4′-tetrone], the IC50 was 1 µM in the assay on MOLM-14 cells (setting [3]) and 2.2 ± 0.74 µM in the assay on MV4-11 cells (setting [4]).
Take “3-chloro-3′-(4-hydroxypiperidinyl)-2,2′-binaphthalenyl-1,1′,4,4′-tetrone [Compound 127]”: the IC50 with MOLM-14 cells (Table 1, read-out: MOLM14 IC50) worked out at 3.6 ± 0.63 µM; with MV4-11 cells (Table 1, cell proliferation, read-out: MV411 IC50), 2.1 ± 0.56 µM.
As to `COCCN(C)C1=C(C2=C(N(C)CCOC)C(=O)c3ccccc3C2=O)C(=O)c2ccccc2C1=O` [Compound 108, 3,3′-bis-[(2-methoxyethyl)(N-methyl)amino]-2,2′-binaphthalenyl-1,1′,4,4′-tetrone], the half-maximal inhibitory concentration (IC50) in the assay on MOLM-14 cells (setting [3]) was 5.55 ± 0.78 µM; in the assay with MOLM-14 cells (setting [6]), 6.1 µM; with MV4-11 cells (setting [4]), 5.5 ± 0.71 µM; in the assay with MV4-11 cells (setting [7]), 6 µM.
Turning to `O=C1C(NCCO)=C(C2=C(NCCO)C(=O)c3cc(F)ccc3C2=O)C(=O)c2ccccc21` [Compound 137], the half-inhibitory concentration (IC50) in the assay with MOLM-14 cells (setting [1]) was determined as 0.37 ± 0.17 µM; with MV4-11 cells (setting [2]) it was 1.16 ± 0.2 µM.
On to `CC(O)CNC1=C(C2=C(NCC(C)O)C(=O)c3ccccc3C2=O)C(=O)c2ccccc2C1=O` (centres unmarked) [Compound 112], for which the IC50 came to 1.49 ± 0.46 µM in the assay with MOLM-14 cells (setting [3]) and 3.94 ± 2.23 µM in the assay with MV4-11 cells (setting [4]).
Turning to `O=C1C(Cl)=C(C2=C(NCCO)C(=O)c3ccccc3C2=O)C(=O)c2ccccc21` [Compound 125, 3-chloro-3′-[(2-hydroxyethyl)amino]-2,2′-binaphthalenyl-1,1′,4,4′-tetrone], the IC50 with MOLM-14 cells (setting [8]) worked out at 2.2 µM; in the assay on MOLM-14 cells (setting [6]) it was 2.2 µM; in the assay with MV4-11 cells (setting [9]) it was 1.2 µM; with MV4-11 cells (setting [7]) it was 1.2 µM.

The values are drawn from patent US11459313B2, “Aziridinyl and amino dimeric naphthoquinone compounds and use for acute myeloid leukemia” (University of Maryland, Baltimore, priority 2016, dated 2022).
